Results from ChEMBL document CHEMBL1240516, “Studies on ligand binding to histidine triad nucleotide binding protein 1” (Bioorg Med Chem, 2010).

Columns and labels:
[1] = molecular target: T1, Adenosine 5'-monophosphoramidase HINT1 (Mus musculus, UniProt P70349); assay: Binding affinity to mouse HINT1 by HSQC spectra assay
T1 sequence (P70349 whole entry): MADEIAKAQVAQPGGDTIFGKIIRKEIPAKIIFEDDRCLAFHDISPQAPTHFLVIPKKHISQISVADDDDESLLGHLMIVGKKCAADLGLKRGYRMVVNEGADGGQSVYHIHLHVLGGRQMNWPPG

[2] = molecular target: T1, Adenosine 5'-monophosphoramidase HINT1; assay: Binding affinity to mouse HINT1 by fluorescence quenching assay
[3] = molecular target: T1, Adenosine 5'-monophosphoramidase HINT1; assay: Binding affinity to mouse HINT1 by NMR analysis

SMILES | Kd [1] | Kd [2] | Kd [3]
NC(=O)c1ncn([C@@H]2O[C@H](COP(=O)(O)O)[C@@H](O)[C@H]2O)c1N | 1200 µM | 1100 µM | 
Nc1nc2c(ncn2[C@@H]2O[C@H](COP(=O)(O)O)[C@H](O)[C@@H]2O)c(=O)[nH]1 [E626] |  | 67 µM | 60 µM
